Measured values: patent publication US6706663B2, “Herbicidal 3-heterocyclic substituted benzisothiazole and benzisoxazole compounds” (Wyeth, priority 2000, dated 2004)

Assays:
GALAP (Galium aparine) = experiment: Postemergence herbicidal evaluation; type: in vivo; conditions: for GALAP herbicidal rating: postemergence
Outline: (§1)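 Visual 0–9 injury scores versus control plants, covering stand, vigour, malformation, size, chlorosis and general appearance, taken four to five weeks post-spray and averaged over replicate tests. Plants were sprayed at roughly two weeks old and held on greenhouse benches.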

[1] = system: CYPSE (Cyperus serotinus); experiment: Flooded paddy, postemergence weed control; type: in vivo, Rottb.; conditions: postemergence weeds, rated 3-4 weeks after treatment
Outline: (§2)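 Weeds 3 to 5 cm tall plus rice seedlings at the 1.5 to 2.5 leaf stage were flooded, water held 1.5 to 3 cm above soil. Compounds in 50/50 v/v aqueous/acetone went directly into flood water at about 0.0320 to 0.2500 kg/ha. Greenhouse, 3 to 4 weeks; visual 0-9 rating versus control.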

[2] = system: SAGPY (Sagittaria pygmaea); experiment: Flooded paddy, preemergence weed control; type: in vivo, L.; conditions: rated 3-4 weeks after treatment, 0-9 rating scale
Outline: (§3)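 Greenhouse paddy test, preemergence. Seeds planted in the top 0.5 cm of silt loam soil, which remained flooded at 1.5–3 cm depth. Scored 0-9 by visual comparison with control.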

[3] = system: ABUTH (Abutilon theophrasti); experiment: Postemergence herbicidal evaluation; type: in vivo, Medic.; conditions: for ABUTH herbicidal rating: postemergence
Outline: as §1

[4] = system: AMBEL (Ambrosia artemisifolia); experiment: Postemergence herbicidal evaluation; type: in vivo, L.; conditions: for AMBEL herbicidal rating: postemergence
Outline: as §1

[5] = system: CASOB (Cassia obtusifolia); experiment: Postemergence herbicidal evaluation; type: in vivo, L.; conditions: for CASOB herbicidal rating: postemergence
Outline: as §1

[6] = system: CHEAL (Chenopodium album); experiment: Postemergence herbicidal evaluation; type: in vivo, L.; conditions: for CHEAL herbicidal rating: postemergence
Outline: as §1

[7] = system: SAGPY (Sagittaria pygmaea); experiment: Flooded paddy, postemergence weed control; type: in vivo, L.; conditions: postemergence weeds, rated 3-4 weeks after treatment
Outline: as §2

ZEAMX (Corn, Field) = experiment: Preemergence herbicidal evaluation; type: in vivo, Zea mays, L.; conditions: rated 4-5 weeks after treatment
CYPIR (Cyperus iria) [8] = experiment: Flooded paddy, preemergence weed control; type: in vivo; conditions: rated 3-4 weeks after treatment, 0-9 rating scale
Outline: as §3

[9] = system: GLXMAW (Soybean, Williams); experiment: Preemergence herbicidal evaluation; type: in vivo, Glycine max, (L.) Merr. cv Williams; conditions: rated 4-5 weeks after treatment
CYPIR (Cyperus iria) [10] = experiment: Flooded paddy, postemergence weed control; type: in vivo; conditions: postemergence weeds, rated 3-4 weeks after treatment
Outline: as §2

[11] = system: MOOVA (Monochoria vaginalis); experiment: Flooded paddy, postemergence weed control; type: in vivo, Presl.; conditions: postemergence weeds, rated 3-4 weeks after treatment
Outline: as §2

ORYSAT (Rice, Tebonnet) [12] = experiment: Flooded paddy, post-transplant rice tolerance; type: in vivo, Oryza sativa, (L.) Tebonnet; conditions: flooded paddy, post-transplant rice, rated 3-4 weeks after treatment, 0-9 rating scale
Outline: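 Seedlings aged ten days are transplanted in pairs into undrained pots of silt loam, which are then flooded to a depth of 1.5 to 3 cm. After herbicide application the pots are kept in a greenhouse with the flood maintained. Plants are rated 0-9 by visual comparison with controls.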

[13] = system: IPOHE (Ipomoea hederacea); experiment: Preemergence herbicidal evaluation; type: in vivo, (L.) Jacq.; conditions: rated 4-5 weeks after treatment
[14] = system: ECHORC (Echinochloa oryzoides); experiment: Flooded paddy, postemergence weed control; type: in vivo, Echinochloa oryzoides (Ard.) Fritsch.; conditions: postemergence weeds, rated 3-4 weeks after treatment
Outline: as §2

ORYSAT (Rice, Tebonnet) [15] = experiment: Flooded paddy, post-transplant and postemergence rice tolerance; type: in vivo, Oryza sativa, (L.) Tebonnet; conditions: post-transplant rice, rated 3-4 weeks after treatment
Outline: as §2

Cc1cc(C)c(-c2nsc3ccc(-n4c(=O)cc(C(F)(F)F)n(C)c4=O)cc23)s1 [Compound 27, 3-[3-(3,5-dimethyl-2-thienyl)-1,2-benzisothiazol-5-yl]-1-methyl-6-(trifluoromethyl)uracil]
Postemergence herbicidal rating, GALAP (GALAP (Galium aparine); rate 0.0320 kg/ha): 2.0
Postemergence herbicidal rating, GALAP (GALAP (Galium aparine); rate 0.0620 kg/ha): 4.0
herbicide rating (0-9) CYPSE ([1]; 0.0320 kg/ha into flood water): 0.0
herbicide rating (0-9) CYPSE ([1]; 0.0620 kg/ha into flood water): 0.0
herbicide rating (0-9) CYPSE ([1]; 0.1250 kg/ha into flood water): 4.0
herbicidal rating, SAGPY ([2]; rate 0.0080 kg/ha): 0.0
herbicidal rating, SAGPY ([2]; rate 0.0320 kg/ha): 1.7
herbicidal rating, SAGPY ([2]; rate 0.1250 kg/ha): 8.3
Postemergence herbicidal rating, ABUTH ([3]; rate 0.0320 kg/ha): 9.0
Postemergence herbicidal rating, ABUTH ([3]; rate 0.0620 kg/ha): 9.0
Postemergence herbicidal rating, AMBEL ([4]; rate 0.0320 kg/ha): 9.0
Postemergence herbicidal rating, AMBEL ([4]; rate 0.0620 kg/ha): 9.0
Postemergence herbicidal rating, CASOB ([5]; rate 0.0320 kg/ha): 3.0
Postemergence herbicidal rating, CASOB ([5]; rate 0.0620 kg/ha): 3.0
Postemergence herbicidal rating, CHEAL ([6]; rate 0.0320 kg/ha): 9.0
Postemergence herbicidal rating, CHEAL ([6]; rate 0.0620 kg/ha): 9.0
herbicide rating (0-9) SAGPY ([7]; 0.0320 kg/ha into flood water): 0.0
herbicide rating (0-9) SAGPY ([7]; 0.0620 kg/ha into flood water): 0.0
herbicide rating (0-9) SAGPY ([7]; 0.1250 kg/ha into flood water): 0.0
ZEAMX preemergence herbicidal rating (ZEAMX (Corn, Field); Rate 0.0620 kg/ha): 3.0
ZEAMX preemergence herbicidal rating (ZEAMX (Corn, Field); Rate 0.1250 kg/ha): 3.0
ZEAMX preemergence herbicidal rating (ZEAMX (Corn, Field); Rate 0.2500 kg/ha): 3.0
herbicidal rating, CYPIR (CYPIR (Cyperus iria) [8]; rate 0.0080 kg/ha): 4.5
herbicidal rating, CYPIR (CYPIR (Cyperus iria) [8]; rate 0.0320 kg/ha): 9.0
herbicidal rating, CYPIR (CYPIR (Cyperus iria) [8]; rate 0.1250 kg/ha): 9.0
GLXMAW preemergence herbicidal rating ([9]; Rate 0.0620 kg/ha): 1.0
GLXMAW preemergence herbicidal rating ([9]; Rate 0.1250 kg/ha): 2.0
GLXMAW preemergence herbicidal rating ([9]; Rate 0.2500 kg/ha): 1.0
herbicide rating (0-9) CYPIR (CYPIR (Cyperus iria) [10]; 0.0320 kg/ha into flood water): 9.0
herbicide rating (0-9) CYPIR (CYPIR (Cyperus iria) [10]; 0.0620 kg/ha into flood water): 9.0
herbicide rating (0-9) CYPIR (CYPIR (Cyperus iria) [10]; 0.1250 kg/ha into flood water): 9.0
herbicide rating (0-9) MOOVA ([11]; 0.0320 kg/ha into flood water): 6.0
herbicide rating (0-9) MOOVA ([11]; 0.0620 kg/ha into flood water): 9.0
herbicide rating (0-9) MOOVA ([11]; 0.1250 kg/ha into flood water): 9.0
herbicidal rating, ORYSAT (rice tolerance) (ORYSAT (Rice, Tebonnet) [12]; rate 0.0080 kg/ha): 1.0
herbicidal rating, ORYSAT (rice tolerance) (ORYSAT (Rice, Tebonnet) [12]; rate 0.0320 kg/ha): 2.0
herbicidal rating, ORYSAT (rice tolerance) (ORYSAT (Rice, Tebonnet) [12]; rate 0.1250 kg/ha): 3.7
IPOHE preemergence herbicidal rating ([13]; Rate 0.1250 kg/ha): 4.0
IPOHE preemergence herbicidal rating ([13]; Rate 0.2500 kg/ha): 3.0
herbicide rating (0-9) ECHORC ([14]; 0.0320 kg/ha into flood water): 0.0
herbicide rating (0-9) ECHORC ([14]; 0.0620 kg/ha into flood water): 7.0
herbicide rating (0-9) ECHORC ([14]; 0.1250 kg/ha into flood water): 9.0
herbicide rating (0-9) ORYSAT (rice tolerance) (ORYSAT (Rice, Tebonnet) [15]; 0.0320 kg/ha into flood water): 2.0
herbicide rating (0-9) ORYSAT (rice tolerance) (ORYSAT (Rice, Tebonnet) [15]; 0.0620 kg/ha into flood water): 4.0
herbicide rating (0-9) ORYSAT (rice tolerance) (ORYSAT (Rice, Tebonnet) [15]; 0.1250 kg/ha into flood water): 6.0

Cn1c(C(F)(F)F)cc(=O)n(-c2ccc3snc(-c4sccc4Cl)c3c2)c1=O [Compound 52, 3-[3-(3-chloro-2-thienyl)-1,2-benzisothiazol-5-yl]-1-methyl-6-(trifluoromethyl)uracil]
GALAP herbicidal rating (GALAP (Galium aparine); rate 0.0320 kg/ha): 5.0
GALAP herbicidal rating (GALAP (Galium aparine); rate 0.0620 kg/ha): 3.0
GALAP herbicidal rating (GALAP (Galium aparine); rate 0.1250 kg/ha): 7.0
herbicide rating (0-9) CYPSE ([1]; 0.0620 kg/ha into flood water): 7.0
herbicide rating (0-9) CYPSE ([1]; 0.1250 kg/ha into flood water): 8.0
herbicidal rating, SAGPY ([2]; rate 0.0080 kg/ha): 0.0
herbicidal rating, SAGPY ([2]; rate 0.0320 kg/ha): 3.7
herbicidal rating, SAGPY ([2]; rate 0.1250 kg/ha): 7.7
ABUTH herbicidal rating ([3]; rate 0.0320 kg/ha): 9.0
ABUTH herbicidal rating ([3]; rate 0.0620 kg/ha): 9.0
ABUTH herbicidal rating ([3]; rate 0.1250 kg/ha): 9.0
AMBEL herbicidal rating ([4]; rate 0.0320 kg/ha): 9.0
AMBEL herbicidal rating ([4]; rate 0.0620 kg/ha): 9.0
AMBEL herbicidal rating ([4]; rate 0.1250 kg/ha): 9.0
CASOB herbicidal rating ([5]; rate 0.0320 kg/ha): 1.0
CASOB herbicidal rating ([5]; rate 0.0620 kg/ha): 7.0
CASOB herbicidal rating ([5]; rate 0.1250 kg/ha): 8.0
CHEAL herbicidal rating ([6]; rate 0.0320 kg/ha): 5.0
CHEAL herbicidal rating ([6]; rate 0.0620 kg/ha): 5.0
CHEAL herbicidal rating ([6]; rate 0.1250 kg/ha): 9.0
herbicide rating (0-9) SAGPY ([7]; 0.0320 kg/ha into flood water): 0.0
herbicide rating (0-9) SAGPY ([7]; 0.0620 kg/ha into flood water): 0.0
herbicide rating (0-9) SAGPY ([7]; 0.1250 kg/ha into flood water): 4.0
Preemergence herbicidal rating ZEAMX (ZEAMX (Corn, Field); Rate 0.0620 kg/ha): 1.5
Preemergence herbicidal rating ZEAMX (ZEAMX (Corn, Field); Rate 0.1250 kg/ha): 3.5
Preemergence herbicidal rating ZEAMX (ZEAMX (Corn, Field); Rate 0.2500 kg/ha): 7.0
herbicidal rating, CYPIR (CYPIR (Cyperus iria) [8]; rate 0.0080 kg/ha): 9.0
herbicidal rating, CYPIR (CYPIR (Cyperus iria) [8]; rate 0.0320 kg/ha): 9.0
herbicidal rating, CYPIR (CYPIR (Cyperus iria) [8]; rate 0.1250 kg/ha): 9.0
Preemergence herbicidal rating GLXMAW ([9]; Rate 0.0620 kg/ha): 1.5
Preemergence herbicidal rating GLXMAW ([9]; Rate 0.1250 kg/ha): 4.0
Preemergence herbicidal rating GLXMAW ([9]; Rate 0.2500 kg/ha): 9.0
herbicide rating (0-9) CYPIR (CYPIR (Cyperus iria) [10]; 0.1250 kg/ha into flood water): 9.0
herbicide rating (0-9) MOOVA ([11]; 0.0320 kg/ha into flood water): 2.0
herbicide rating (0-9) MOOVA ([11]; 0.0620 kg/ha into flood water): 2.0
herbicide rating (0-9) MOOVA ([11]; 0.1250 kg/ha into flood water): 9.0
herbicidal rating, ORYSAT (rice tolerance) (ORYSAT (Rice, Tebonnet) [12]; rate 0.0080 kg/ha): 1.0
herbicidal rating, ORYSAT (rice tolerance) (ORYSAT (Rice, Tebonnet) [12]; rate 0.0320 kg/ha): 3.7
herbicidal rating, ORYSAT (rice tolerance) (ORYSAT (Rice, Tebonnet) [12]; rate 0.1250 kg/ha): 5.7
Preemergence herbicidal rating IPOHE ([13]; Rate 0.0620 kg/ha): 2.0
Preemergence herbicidal rating IPOHE ([13]; Rate 0.1250 kg/ha): 3.0
Preemergence herbicidal rating IPOHE ([13]; Rate 0.2500 kg/ha): 6.0
herbicide rating (0-9) ECHORC ([14]; 0.0320 kg/ha into flood water): 6.0
herbicide rating (0-9) ECHORC ([14]; 0.0620 kg/ha into flood water): 9.0
herbicide rating (0-9) ECHORC ([14]; 0.1250 kg/ha into flood water): 8.0
herbicide rating (0-9) ORYSAT (rice tolerance) (ORYSAT (Rice, Tebonnet) [15]; 0.0320 kg/ha into flood water): 4.0
herbicide rating (0-9) ORYSAT (rice tolerance) (ORYSAT (Rice, Tebonnet) [15]; 0.0620 kg/ha into flood water): 6.0
herbicide rating (0-9) ORYSAT (rice tolerance) (ORYSAT (Rice, Tebonnet) [15]; 0.1250 kg/ha into flood water): 7.0
